US20190010380A1, “METHOD FOR CONTROLLING BACTERIA IN FORMATIONS USING MOLYBDATE” (priority 2017, published 2019)
Where “and” joins values, the source holds several entries; their conditions need not be identical. Equal values may be shown once.

Columns and labels:
[1] = tested on: SRB; experiment: Hydrogen sulfide inhibition in actual produced water from the Eagle Ford shale diluted to 3%, spiked with SRB; type: cell-based, sulfate-reducing bacteria (SRB)
Description: (§1) Hydrogen sulfide inhibition was tested in mock-produced water approximating water used in hydraulic fracturing operations and was made to a total dissolved solids concentration of 3% with a mixture of instant ocean and NaCl salts. The water was supplemented with nutrients and sulfate to allow SRB to metabolize and create H2S. The water was spiked with SRB and then treated with the various treatment conditions noted below in Table 3 and sealed. Treatment conditions were: Control: No biocide or nitrate.
(§2) 250 ppm 12.3 Glut/Quat Biocide: a mixture of glutaraldehyde and a quarternary ammonia compound was prepared NRB Program: (480 ppm Ca(NO3)2 with 1 ppm live NRB culture. 20 ppm, 40 ppm, 50 ppm, 60 ppm, 80 ppm, 100 ppm, 120 ppm, 150 ppm, and 200 ppm molybdate concentration-.
(§3) H2S was measured at intervals using H2S detecting Draeger tubes. Dissolved H2S was released into the gas phase with the addition of hydrochloric acid so that H2S could be measured with the Draeger tubes to get a complete reading of all H2S produced during the course of the example.
Samples were prepared in accordance with Example 1, except that actual produced water sourced from the Eagle Ford shale that was diluted to 3% using deionized water was used in the samples.

[2] = tested on: SRB; experiment: Hydrogen sulfide inhibition in mock-produced water spiked with SRB (Draeger tubes); type: cell-based, sulfate-reducing bacteria (SRB); details: for Total H2S: mock-produced water
Description: as §1, §2, §3

[O]=[Mo](=[O])([O-])[O-] [MoO4, molybdate]
Total H2S ([1]; 20 ppm MoO4): 3188 ppm | Total H2S ([1]; 50 ppm MoO4): 234 ppm | Total H2S ([1]; 80 ppm MoO4): 172 ppm | Total H2S ([1]; 100 ppm MoO4): 107 ppm | Total H2S ([1]; 150 ppm MoO4): 160 ppm | Total H2S ([1]; 200 ppm MoO4): 110 ppm | Comparison with Glut/Quat biocide and NRB treatment ([1]; concentrations of 50 ppm and above): competitive with other proven treatments | Effect on H2S formation ([1]; molybdate alone, even at lower concentrations): caused a strong reduction in H2S formation | Comparison with Glut/Quat biocide and NRB treatment ([2]; mock produced water, concentrations of 150 ppm and above): competitive with other proven treatments | Effect on H2S formation ([2]; mock produced water, molybdate alone, even at lower concentrations): caused a reduction in H2S formation | Total H2S ([2]; 20 ppm MoO4): 1974 ppm | Total H2S ([2]; 40 ppm MoO4): 1066 ppm | Total H2S ([2]; 50 ppm MoO4): 2262 ppm and 1536 ppm | Total H2S ([2]; 60 ppm MoO4): 1846 ppm | Total H2S ([2]; 80 ppm MoO4): 1866 ppm | Total H2S ([2]; 100 ppm MoO4): 738 ppm | Total H2S ([2]; 120 ppm MoO4): 890 ppm | Total H2S ([2]; 150 ppm MoO4): 176 ppm | Total H2S ([2]; 200 ppm MoO4): 40 ppm
